Test: xn = mol fraction of the nth substance listed

NC=O + OCCCO
viscosity [mPa·s], 100 kPa
Conditions | x1 = 0.1034 | x1 = 0.2038 | x1 = 0.3016 | x1 = 0.4021 | x1 = 0.5014 | x1 = 0.5969 | x1 = 0.7026 | x1 = 0.7996 | x1 = 0.8975
293.15 K | 38.53 | 28.29 | 19.85 | 14.09 | 10.47 | 8.232 | 6.233 | 5.198 | 4.415
298.15 K | 29.44 | 21.08 | 14.33 | 9.719 | 7.266 | 6.123 | 5.094 | 4.135 | 3.811
303.15 K | 23.41 | 16.76 | 11.34 | 7.417 | 5.776 | 4.679 | 4.163 | 3.336 | 3.213

OCCCO + OCCO
viscosity [mPa·s], 101 kPa
Conditions | x2 = 0.111 | x2 = 0.2019 | x2 = 0.359 | x2 = 0.4612 | x2 = 0.5502 | x2 = 0.6262 | x2 = 0.7342 | x2 = 0.8289 | x2 = 0.9111
298.15 K | 39.52 | 37.55 | 34.13 | 31.81 | – | – | 24.96 | 22.36 | 19.9
303.15 K | 31.57 | 29.96 | 27.17 | 25.33 | 23.65 | 22.16 | 19.81 | 17.71 | 15.79
308.15 K | 25.57 | 24.22 | 21.94 | 20.45 | 19.09 | 17.92 | 16.08 | 14.42 | 12.89

OCCCl + OCCO
293.15 K, 101.33 kPa
Conditions | viscosity [mPa·s]
x2 = 0.1328 | 4.422
x2 = 0.2605 | 5.484
x2 = 0.3003 | 5.879
x2 = 0.3636 | 6.593
x2 = 0.4644 | 7.922
x2 = 0.5437 | 9.223
x2 = 0.6211 | 10.66
x2 = 0.6983 | 12.26
x2 = 0.7424 | 13.29
x2 = 0.8141 | 15.21
x2 = 0.8422 | 15.98
x2 = 0.9168 | 18.26

CN1CCC[C@H]1c1cccnc1 + Oc1ccccc1
viscosity [mPa·s], 101 kPa
Conditions | 308.15 K | 323.15 K
x1 = 0.1004 | 16.28 | 7.224
x1 = 0.206 | 28.72 | 11.46
x1 = 0.2109 | 30.07 | 12.15
x1 = 0.2205 | 29.73 | 11.9
x1 = 0.253 | 29.83 | 12.06
x1 = 0.255 | 29.69 | 12.05
x1 = 0.2629 | 29.4 | 12
x1 = 0.2865 | 28.64 | 11.74
x1 = 0.3078 | 27.55 | 11.63
x1 = 0.4035 | 21.01 | 10.08
x1 = 0.4981 | 16.16 | 8.092
x1 = 0.6636 | 7.423 | 4.797
x1 = 0.7961 | 5.162 | 3.41
x1 = 0.861 | 4.501 | 3.032

CC(C)C#N + c1ccccc1
viscosity [mPa·s], 101 kPa
Conditions | x2 = 0.1007 | x2 = 0.2057 | x2 = 0.307 | x2 = 0.3954 | x2 = 0.4991 | x2 = 0.5899 | x2 = 0.6925 | x2 = 0.7959 | x2 = 0.8965
303.15 K | 0.459 | 0.458 | 0.46 | 0.465 | 0.472 | 0.483 | 0.497 | 0.516 | 0.539
308.15 K | 0.43 | 0.432 | 0.432 | 0.434 | 0.442 | 0.451 | 0.462 | 0.481 | 0.498

OCCCl + c1ccccc1
303.15 K, 101.33 kPa
Conditions | viscosity [mPa·s]
x2 = 0.3365 | 1.315
x2 = 0.4832 | 1.008
x2 = 0.6611 | 0.771
x2 = 0.849 | 0.613

NC=O + c1ccncc1
298.15 K, 101 kPa
Conditions | viscosity [mPa·s]
x1 = 0.129 | 1.064
x1 = 0.1798 | 1.16
x1 = 0.2662 | 1.365

OCCCO + c1ccncc1
Conditions | viscosity [mPa·s]
313.15 K, 101 kPa, x2 = 0.3 | 8.615

N#C[C-](C#N)C#N.OCC[n+]1ccccc1 + c1ccsc1
Conditions | viscosity [mPa·s]
313.15 K, 101 kPa, x1 = 0.4042 | 9.96
